Paper PMC12837517, “Valorization of Onion-Processing Waste: Digestive Fate, Bioavailability, and Cellular Antioxidant Properties of Red and Yellow Peels Polyphenols” (Antioxidants, 2025)
Like-named read-outs stand apart in the source and are kept apart here. Marks after values point to notes of the source that are not given here.

Legend:
[1] = tested on: Caco-2 cells; experiment: Polyphenol accumulation within Caco-2 cells (uptake); type: in vitro ADME, human
Procedure: (§1) To determine how effectively specific polyphenols might be absorbed through the human intestine, an in vitro assay was conducted utilizing the Caco-2 cell line, which, when fully differentiated, mimics the human intestinal barrier, as described by D’Antuono et al. [16]. […] The cells were maintained for 21 days in a standard culture condition to ensure complete differentiation into a tight monolayer. The medium in both the apical and basolateral compartments was refreshed twice weekly.
(§2) The development of a robust epithelial barrier was confirmed by measuring the Transepithelial Electrical Resistance (TEER) using a volt–ohm meter. […] Prior to the experiment, the monolayers were rinsed with a pH 5.5 PBS. The apical chamber then received 2 mL of phenol red-free DMEM containing hydroalcoholic extracts from red and yellow onion peels, adjusted to a final total polyphenol concentration of 60 μg/mL and 30 μg/mL, respectively. The system was incubated at 37 °C, and samples from both the apical and basolateral chambers were collected for 30, 60, 90, and 120 min to track the time-dependent flux of the compounds. These samples were flash-frozen at −80 °C pending High-Performance Liquid Chromatography (HPLC) analysis.
(§3) For the assessment of polyphenol accumulation within the Caco-2 cells, the monolayers were first subjected to a sequential wash with PBS pH 5.5, and then with a solution of 0.1% fatty acid-free bovine albumin in PBS pH 5.5. The cells were then mechanically harvested into 1 mL of cold PBS pH 5.5 and stored at −80 °C under a nitrogen atmosphere. […] Polyphenols were chemically isolated from the sonicated Caco-2 cells and the basolateral solutions via a liquid–liquid extraction technique, employing ethyl acetate EtOAc stabilized with 0.01% butylated hydroxytoluene (BHT). This extraction was repeated three times, and the pooled organic layers were dried under vacuum before being dissolved in 200 μL mobile phase for HPLC analysis.

[2] = Two-step in vitro gastrointestinal digestion, digestive stability of polyphenols; type: in vitro ADME; settings: for Digestive Stability (%) Gastric %: after gastric phase (pepsin, pH 2.5, 37 °C, 1 h); for Digestive Stability (%) Intestinal %: after small intestinal phase (pH 6.5, 37 °C, 2 h)
Procedure: The digestive stability of polyphenols was assessed using a two-step in vitro gastrointestinal digestion model, as described by Cardinali et al.. Aliquots (3 mL) of aqueous onion peel extracts (500 μg/mL total polyphenols, determined by HPLC-DAD) were diluted with 4.5 mL of 0.9% NaCl at pH 7. The gastric phase was initiated with addition of 0.9 mL of porcine pepsin solution (40 mg/mL) in 0.1 N HCl and adjustment of pH to 2.5 ± 0.1 with 1 N HCl. Samples were incubated at 37 °C for 1 h. Following gastric digestion, the small intestinal phase was initiated by adjusting the pH of gastric digesta to 5.3 with 100 mM NaHCO3 and 1 N NaOH, followed by the addition of 2.7 mL of small intestinal enzyme solution (lipase 2 mg/mL, pancreatin 4 mg/mL, and bile 24 mg/mL in 100 mM NaHCO3). The final sample pH was adjusted to 6.5 ± 0.1 with 1 N NaOH, the volume was standardized to 15 mL with saline solution (0.9% NaCl), and the sample was incubated at 37 °C for 2 h. After both digestion steps (gastric and small intestinal), the samples were collected and centrifuged (10,000× g, 1 h, 4 °C), filtered (0.45 μm), and then analyzed by HPLC-DAD. Digestive stability (%) was calculated by comparing pre- and post-digestion polyphenol content.

[3] = Transport of polyphenols across differentiated Caco-2 monolayers (apical stability, basolateral bioavailability, Papp); settings: human, Caco-2
Procedure: as §1, §2, §3

[4] = tested on: Caco-2 cell monolayer; experiment: as above
Procedure: as §1, §2, §3

[5] = tested on: Caco-2 cell monolayer
Procedure: as §1, §2, §3

[6] = design: method as in PMID 34388527; settings: at room temperature; cited from earlier work
[7] = red onion peels “Rossa di Tropea” extract
[8] = yellow onion peels “Recas” extract
[9] = yellow onion peels extract, 30 min (maximum)
[10] = yellow onion peels extract, 30-120 min
[11] = yellow onion peels “Recas” extract, listed as quercetin aglycone

COc1cc(-c2oc3cc(O)cc(O)c3c(=O)c2O)ccc1O [isorhamnetin] gave a cellular accumulation ([1]; red onion peels extract, 120 min) of 0.040 ng/µg protein.
For O=C(O)c1ccc(O)c(O)c1 [Protocatechuic acid], the recovery ([2]; in both onion varieties, phase not specified, read-out: recovery after digestion) was greater than 100%, the “Digestive Stability (%) Gastric %” value [2, 7] was greater than 100.00% and the “Digestive Stability (%) Intestinal %” value [2, 7] was greater than 100.00%. For the same compound, the “Digestive Stability (%) Gastric %” value [2, 8] was 90.32 ± 4.41 ^b %, the “Digestive Stability (%) Intestinal %” value [2, 8] was >100.00 ^a % and the cellular accumulation ([1]; red onion peels extract, 30 min) was 0.013 ng/µg protein. The cellular accumulation [1, 9] was 0.050 ng/µg protein, the Papp A→B at 120 min, 30 µg/mL total polyphenols [3] was 8.4 ×10⁻⁶ cm/s and the bioavailability at 90 min, 30 µg/mL total polyphenols [3] was 6.8%. The bioavailability at 120 min, 30 µg/mL total polyphenols [3] was 7.7% and the “stability in apical culture medium over time” value [4, 10] was “consistent stability”.
For O=c1c(O)c(-c2ccc(O[C@@H]3O[C@H](CO)[C@@H](O)[C@H](O)[C@H]3O)c(O)c2)oc2cc(O[C@@H]3O[C@H](CO)[C@@H](O)[C@H](O)[C@H]3O)cc(O)c12 [Quercetin 7,4′-diglucoside], the “Papp (apical-to-basolateral)” value [5] was 5.9 ×10⁻⁶ cm/s.
In the case of O=c1c(O[C@@H]2O[C@H](CO)[C@@H](O)[C@H](O)[C@H]2O)c(-c2ccc(O[C@@H]3O[C@H](CO)[C@@H](O)[C@H](O)[C@H]3O)c(O)c2)oc2cc(O)cc(O)c12 [Quercetin 3,4′-diglucoside], the “Papp (apical-to-basolateral)” value [5] is reported as 6.1 ×10⁻⁶ cm/s.
With O=c1c(O)c(-c2ccc(O)c(O)c2)oc2cc(O)cc(O)c12 [Quercetin] the “Digestive Stability (%) Gastric %” value [2, 7] was 32.34 ± 3.97 ^a %, the “Digestive Stability (%) Intestinal %” value [2, 7] was 15.37 ± 2.55 ^b % and the “Digestive Stability (%) Gastric %” value [2, 8] was 3.44 ± 0.56 ^b %. The “Digestive Stability (%) Gastric %” value [2, 11] was 3.44%, the “Digestive Stability (%) Intestinal %” value [2, 8] was 15.64 ± 0.96 ^a % and the “Digestive Stability (%) Intestinal %” value [2, 11] was 15.64%. It also gave a maximum cellular accumulation ([1]; red onion peels extract, time not stated) of 1.468 ng/µg protein, a Papp A→B at 120 min, 60 µg/mL total polyphenols [3] of 1.1 ×10⁻⁶ cm/s and a bioavailability at 60 min, 60 µg/mL total polyphenols [3] of 0.6%. For the same compound, the recovery at 30 min, 60 μg/mL total polyphenols [3] was 38%, the recovery at 120 min, 60 μg/mL total polyphenols [3] was 7% and the “detection in basolateral compartment” value [4, 10] was “not detected”.
In the case of O=c1c(O)c(-c2ccc(O[C@@H]3O[C@H](CO)[C@@H](O)[C@H](O)[C@H]3O)c(O)c2)oc2cc(O)cc(O)c12 [Spiraeoside, quercetin-4′-O-glucoside], the “Digestive Stability (%) Gastric %” value [2, 7] is reported as 99.51 ± 3.50 ^a %, the “Digestive Stability (%) Intestinal %” value [2, 7] is reported as 39.97 ± 6.96 ^b % and the “Digestive Stability (%) Gastric %” value [2, 8] is reported as 81.11 ± 6.54 ^a %. The “Digestive Stability (%) Intestinal %” value [2, 8] was 36.76 ± 3.49 ^b %, the cellular accumulation ([1]; red onion peels extract, 90 min (maximum)) was 0.142 ng/µg protein and the cellular accumulation [1, 9] was 0.162 ng/µg protein. For the same compound, the Papp A→B at 120 min, 30 µg/mL total polyphenols [3] was 5.5 ×10⁻⁶ cm/s, the bioavailability at 90 min, 30 µg/mL total polyphenols [3] was roughly 8% and the bioavailability at 120 min, 30 µg/mL total polyphenols [3] was roughly 8%. It also gave a recovery at 30 min, 60 μg/mL total polyphenols [3] of 78% and a recovery at 120 min, 60 μg/mL total polyphenols [3] of 62%.
For O=C1c2c(O)cc(O)cc2OC(c2ccc(O)c(O)c2)C1O (stereo not shown) [taxifolin], the solubility [6] is listed as 0.1%.
With OC[C@H]1O[C@@H](Oc2cc3c(O)cc(O)cc3[o+]c2-c2ccc(O)c(O)c2)[C@H](O)[C@@H](O)[C@@H]1O [Cyanidin 3-glucoside] the “Papp (apical-to-basolateral)” value ([4]; red onion peels extract) was 5.1 ×10⁻⁶ cm/s and the “detection in basolateral compartment” value ([4]; red onion peels extract, 30-120 min) was “present in the basolateral side at 60 and 120 min”.
